Results on 12 compounds are retold here after patent US8026243B2, “[4,5′]Bipyrimidinyl-6,4′-diamine derivatives as protein kinase inhibitors” (Novartis AG, priority 2006, dated 2011).

T1 sequence (P22607 whole entry, change not shown, the tested form may be a part): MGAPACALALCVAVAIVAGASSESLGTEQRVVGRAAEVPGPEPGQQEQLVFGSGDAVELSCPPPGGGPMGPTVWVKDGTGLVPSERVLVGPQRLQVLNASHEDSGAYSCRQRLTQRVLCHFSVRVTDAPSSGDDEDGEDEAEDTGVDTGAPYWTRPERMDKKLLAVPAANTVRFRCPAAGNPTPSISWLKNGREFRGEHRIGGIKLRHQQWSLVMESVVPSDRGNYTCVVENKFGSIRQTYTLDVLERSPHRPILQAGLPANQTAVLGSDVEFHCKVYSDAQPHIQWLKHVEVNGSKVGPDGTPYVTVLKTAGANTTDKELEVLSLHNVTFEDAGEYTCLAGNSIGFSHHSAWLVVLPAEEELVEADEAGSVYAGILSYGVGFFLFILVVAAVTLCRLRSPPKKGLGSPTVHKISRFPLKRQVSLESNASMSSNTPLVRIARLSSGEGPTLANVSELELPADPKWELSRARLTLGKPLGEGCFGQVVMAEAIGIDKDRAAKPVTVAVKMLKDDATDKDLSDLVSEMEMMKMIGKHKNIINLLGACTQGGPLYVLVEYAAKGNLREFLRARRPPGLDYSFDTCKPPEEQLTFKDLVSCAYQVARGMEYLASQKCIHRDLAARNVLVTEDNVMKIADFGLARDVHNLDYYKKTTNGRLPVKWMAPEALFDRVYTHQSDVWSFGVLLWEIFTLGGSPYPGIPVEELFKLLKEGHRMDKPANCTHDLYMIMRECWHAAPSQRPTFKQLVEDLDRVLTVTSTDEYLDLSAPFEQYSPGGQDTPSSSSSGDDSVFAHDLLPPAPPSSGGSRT

This assay has as its target T1, Ba/F3-TEL-FGFR3 cells (Homo sapiens, UniProt P22607).
T1 construct: fused on or other part: The N-terminal oligomerising part of TEL (ETV6) is fused before the intracellular kinase part of FGFR3; P41212 (Transcription factor ETV6)
The assay can be described thus: FGFR3 cellular assay: proliferation of transformed Ba/F3-TEL-FGFR3 cells (AlamarBlue). It counts as cell-based. To be noted: 48 hours incubation, class symbols. Summed up:
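Ba/F3-TEL-FGFR3 cells (5000/well) in RPMI 1640 with 10% FBS, exposed to twelve-point 1:3 compound dilutions for 48 h. Proliferation read by AlamarBlue (10% final, 4 h at 37 °C), fluorescence Ex530/Em580; IC50 from linear regression of percent inhibition.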
For orientation: GI50 means the concentration at which growth is held to half of that of the control. Low readings indicate greater sensitivity of the cells, high ones lower sensitivity of the cells. `CCN(CC)CCOc1ccc(Nc2cc(-c3cncnc3Nc3c(Cl)c(OC)cc(OC)c3Cl)ncn2)cc1` [Compound 17, N4′-(2,6-Dichloro-3,5-dimethoxy-phenyl)-N6-[4-(2-diethylamino-ethoxy)-phenyl]-[4,5′]bipyrimidinyl-6,4′-diamine] yielded a GI50 of less than 100 nM.
Then `COc1cc(OC)c(Cl)c(Nc2ncncc2-c2cc(Nc3ccc(CN4CCOCC4)cn3)ncn2)c1F` [Compound 44, N4′-(2-Chloro-6-fluoro-3,5-dimethoxy-phenyl)-N6-(5-morpholin-4-ylmethyl-pyridin-2-yl)-[4,5′]bipyrimidinyl-6,4′-diamine], with less than 100 nM; and `COc1cc(OC)c(Cl)c(Nc2ncncc2-c2cc(NCCCN3CCOCC3)ncn2)c1Cl` [Compound 12, N4′-(2,6-Dichloro-3,5-dimethoxy-phenyl)-N6-(3-morpholin-4-yl-propyl)-[4,5′]bipyrimidinyl-6,4′-diamine], with 100 to 250 nM; and `CCN1CCN(c2ccc(Nc3cc(-c4cncnc4Nc4c(Cl)c(OC)cc(OC)c4Cl)ncn3)nc2)CC1` [Compound 40, N4′-(2,6-Dichloro-3,5-dimethoxy-phenyl)-N6-[5-(4-ethyl-piperazin-1-yl)-pyridin-2-yl]-[4,5′]bipyrimidinyl-6,4′-diamine], with less than 100 nM.
Next, `COc1cc(OC)c(Cl)c(Nc2ncncc2-c2cc(NC(=O)NCCN3CCOCC3)ncn2)c1Cl` [Compound 9, 1-[4′-(2,6-Dichloro-3,5-dimethoxy-phenylamino)-[4,5′]bipyrimidinyl-6-yl]-3-(2-morpholin-4-yl-ethyl)-urea]: less than 100 nM; `COc1cc(OC)c(F)c(Nc2ncncc2-c2cc(Nc3ccc(C(C)O)cn3)ncn2)c1F` (stereo not drawn) [Compound 80, 1-{6-[4′-(2,6-Difluoro-3,5-dimethoxy-phenylamino)-[4,5′]bipyrimidinyl-6-ylamino]-pyridin-3-yl}-ethanol]: less than 100 nM.
As for `CCONC(=O)c1cc(OC)c(Cl)c(Nc2ncncc2-c2cc(Nc3ccc(CN4CCOCC4)cn3)ncn2)c1Cl` [Compound 25, 2,4-Dichloro-N-ethoxy-5-methoxy-3-[6-(5-morpholin-4-ylmethyl-pyridin-2-ylamino)-[4,5′]bipyrimidinyl-4′-ylamino]-benzamide], the GI50 is less than 100 nM.
Next, `COc1cc(OC)c(Cl)c(Nc2ncncc2-c2cc(Nc3ccc(CN4CCOCC4)cn3)ncn2)c1C` [Compound 52, N4′-(2-Chloro-3,5-dimethoxy-6-methyl-phenyl)-N6-(5-morpholin-4-ylmethyl-pyridin-2-yl)-[4,5′]bipyrimidinyl-6,4′-diamine]: less than 100 nM; `COc1cc(Nc2ncncc2-c2cc(Nc3ccc(CN4CCOCC4)cn3)ncn2)c(Cl)c(OC)c1` [Compound 37, N4′-(2-Chloro-3,5-dimethoxy-phenyl)-N6-(5-morpholin-4-ylmethyl-pyridin-2-yl)-[4,5′]bipyrimidinyl-6,4′-diamine]: 100 to 250 nM; `COc1cc(OC)c(Cl)c(Nc2nccnc2-c2cc(Nc3ccc(CN4CCOCC4)cn3)ncn2)c1F` [Compound 95, {6-[3-(2-chloro-3,5-dimethoxy-6-fluoro phenylamino)-pyrazin-2-yl]-pyrimidin-4-yl}-(5-morpholin-4-ylmethyl-pyridin-2-yl)-amine]: less than 100 nM.
`COc1cc(OC)c(Cl)c(Nc2ncncc2-c2cc(Nc3cc(CN4CCN(C)CC4)ccn3)ncn2)c1Cl` [Compound 6, N4′-(2,6-Dichloro-3,5-dimethoxy-phenyl)-N6-[4-(4-methyl-piperazin-1-ylmethyl)-pyridin-2-yl]-[4,5′]bipyrimidinyl-6,4′-diamine]: the GI50 was less than 100 nM.
The compound `COc1cc(OC)c(Cl)c(Nc2ncncc2-c2cc(NC(=O)NCCN3CCN(C)CC3)ncn2)c1Cl` [Compound 8, 1-[4′-(2,6-Dichloro-3,5-dimethoxy-phenylamino)-[4,5′]bipyrimidinyl-6-yl]-3-[2-(4-methyl-piperazin-1-yl)-ethyl]-urea] yielded a GI50 of 100 to 250 nM.
